Experiments:
Settings in all cases: exposure time: 72 h
E31 [1] = patient-derived glioblastoma stem cells of proneural subtype; assay: surviving fraction (nuclei count normalised to DMSO); higher = more cells surviving (less toxic)
E21 [2] = patient-derived glioblastoma stem cells of mesenchymal subtype; assay: as above
E28 [3] = patient-derived glioblastoma stem cells of classical subtype; assay: as above
E34 [4] = patient-derived glioblastoma stem cells of proneural subtype; assay: as above
E57 [5] = patient-derived glioblastoma stem cells of mesenchymal subtype; assay: as above
FT3469 [6] = normal neural stem cell line; assay: as above
E13 [7] = patient-derived glioblastoma stem cells of classical subtype; assay: as above
E31 [8] = assay: phenotypic distance (Euclidean, principal components) from DMSO controls (arbitrary units); higher = stronger morphological change
E21 [9] = assay: as above
E28 [10] = assay: as above
E34 [11] = assay: as above
E57 [12] = assay: as above
FT3469 [13] = assay: as above
E13 [14] = assay: as above
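For phenotypic distance (Euclidean, principal components) from DMSO controls in this document: cell Painting imaging in 384-well plates, CellProfiler features reduced to at least 20 principal components, Euclidean distance versus same-plate DMSO vehicle wells (0.1% v/v), median over six images per well.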
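For surviving fraction (nuclei count normalised to DMSO) in this document: nuclei counted by high-content imaging of Hoechst-stained cells in laminin-coated 384-well plates, relative to 0.1% DMSO vehicle wells, with staurosporine as cell-death control.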

Cn1ncnc1[C@H]1c2n[nH]c(=O)c3cc(F)cc(c23)N[C@@H]1c1ccc(F)cc1 [Talazoparib]
Settings	phenotypic distance	surviving fraction
E13 [7], 4.1 nM	–	0.705
E13 [7], 12.3 nM	–	0.673
E13 [7], 37 nM	–	0.629
E13 [7], 111.1 nM	–	0.593
E13 [7], 333.3 nM	–	0.548
E13 [7], 1000 nM	–	0.461
E13 [7], 3000 nM	–	0.51
E13 [14], 4.1 nM	1.44	–
E13 [14], 12.3 nM	1.97	–
E13 [14], 37 nM	2.08	–
E13 [14], 111.1 nM	2.45	–
E13 [14], 333.3 nM	3.55	–
E13 [14], 1000 nM	4.7	–
E13 [14], 3000 nM	4.3	–
E21 [2], 4.1 nM	–	0.755
E21 [2], 12.3 nM	–	0.777
E21 [2], 37 nM	–	0.709
E21 [2], 111.1 nM	–	0.629
E21 [2], 333.3 nM	–	0.565
E21 [2], 1000 nM	–	0.403
E21 [2], 3000 nM	–	0.292
E21 [9], 4.1 nM	4.97	–
E21 [9], 12.3 nM	1.69	–
E21 [9], 37 nM	2.19	–
E21 [9], 111.1 nM	2.75	–
E21 [9], 333.3 nM	3.08	–
E21 [9], 1000 nM	4.5	–
E21 [9], 3000 nM	5.21	–
E28 [3], 4.1 nM	–	0.503
E28 [3], 12.3 nM	–	0.47
E28 [3], 37 nM	–	0.44
E28 [3], 111.1 nM	–	0.418
E28 [3], 333.3 nM	–	0.388
E28 [3], 1000 nM	–	0.395
E28 [3], 3000 nM	–	0.3
E28 [10], 4.1 nM	3.02	–
E28 [10], 12.3 nM	2.65	–
E28 [10], 37 nM	3.31	–
E28 [10], 111.1 nM	3.57	–
E28 [10], 333.3 nM	3.51	–
E28 [10], 1000 nM	3.37	–
E28 [10], 3000 nM	4.36	–
E31 [1], 4.1 nM	–	0.59
E31 [1], 12.3 nM	–	0.663
E31 [1], 37 nM	–	0.623
E31 [1], 111.1 nM	–	0.534
E31 [1], 333.3 nM	–	0.342
E31 [1], 1000 nM	–	0.265
E31 [1], 3000 nM	–	0.207
E31 [8], 4.1 nM	1.5	–
E31 [8], 12.3 nM	1.58	–
E31 [8], 37 nM	1.6	–
E31 [8], 111.1 nM	2.21	–
E31 [8], 333.3 nM	2.86	–
E31 [8], 1000 nM	2.1	–
E31 [8], 3000 nM	2.79	–
E34 [4], 4.1 nM	–	0.623
E34 [4], 12.3 nM	–	0.671
E34 [4], 37 nM	–	0.556
E34 [4], 111.1 nM	–	0.594
E34 [4], 333.3 nM	–	0.561
E34 [4], 1000 nM	–	0.503
E34 [4], 3000 nM	–	0.48
E34 [11], 4.1 nM	3.39	–
E34 [11], 12.3 nM	3.64	–
E34 [11], 37 nM	3.15	–
E34 [11], 111.1 nM	3.62	–
E34 [11], 333.3 nM	3.3	–
E34 [11], 1000 nM	2.98	–
E34 [11], 3000 nM	3.55	–
E57 [5], 4.1 nM	–	0.807
E57 [5], 12.3 nM	–	0.735
E57 [5], 37 nM	–	0.797
E57 [5], 111.1 nM	–	0.676
E57 [5], 333.3 nM	–	0.605
E57 [5], 1000 nM	–	0.313
E57 [5], 3000 nM	–	0.25
E57 [12], 4.1 nM	1.57	–
E57 [12], 12.3 nM	1.96	–
E57 [12], 37 nM	1.65	–
E57 [12], 111.1 nM	2.9	–
E57 [12], 333.3 nM	3.02	–
E57 [12], 1000 nM	6.02	–
E57 [12], 3000 nM	6.4	–
FT3469 [6], 4.1 nM	–	0.637
FT3469 [6], 12.3 nM	–	0.778
FT3469 [6], 37 nM	–	0.657
FT3469 [6], 111.1 nM	–	0.727
FT3469 [6], 333.3 nM	–	0.648
FT3469 [6], 1000 nM	–	0.636
FT3469 [6], 3000 nM	–	0.569
FT3469 [13], 4.1 nM	2.18	–
FT3469 [13], 12.3 nM	1.53	–
FT3469 [13], 37 nM	1.5	–
FT3469 [13], 111.1 nM	1.69	–
FT3469 [13], 333.3 nM	1.74	–
FT3469 [13], 1000 nM	1.99	–
FT3469 [13], 3000 nM	2.44	–

— the supplement of paper PMC13207355
